The values that follow come from patent US8431564B2 (Merck Sharp & Dohme B.V., priority 2009, dated 2013).

In the experiment the target is T1, human FSH receptor (Homo sapiens, UniProt P23945).
T1 construct: expressed in transfected cells; host or cells: CHO (Chinese Hamster Ovary) cells, stably transfected, cotransfected with CRE-luciferase reporter
T1 sequence (P23945 18-695): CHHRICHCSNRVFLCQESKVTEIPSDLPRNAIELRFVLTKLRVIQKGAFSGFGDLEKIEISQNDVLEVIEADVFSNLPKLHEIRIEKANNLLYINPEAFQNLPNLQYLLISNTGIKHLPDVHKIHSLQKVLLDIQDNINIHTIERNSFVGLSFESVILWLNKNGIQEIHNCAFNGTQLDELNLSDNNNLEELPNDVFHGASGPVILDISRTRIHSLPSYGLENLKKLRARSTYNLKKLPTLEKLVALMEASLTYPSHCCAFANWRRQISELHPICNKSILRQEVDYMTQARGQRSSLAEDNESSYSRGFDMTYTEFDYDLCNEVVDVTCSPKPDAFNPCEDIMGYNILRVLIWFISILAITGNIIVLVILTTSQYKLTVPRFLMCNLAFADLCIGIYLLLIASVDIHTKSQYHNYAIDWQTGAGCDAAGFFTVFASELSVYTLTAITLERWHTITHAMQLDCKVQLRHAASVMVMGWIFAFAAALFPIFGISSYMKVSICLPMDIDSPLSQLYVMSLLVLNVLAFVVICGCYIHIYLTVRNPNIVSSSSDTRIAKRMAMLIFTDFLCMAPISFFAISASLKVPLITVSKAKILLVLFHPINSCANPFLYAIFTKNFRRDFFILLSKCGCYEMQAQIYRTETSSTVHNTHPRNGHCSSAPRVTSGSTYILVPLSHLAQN
As to the kind of experiment: Agonistic activity at the human FSH receptor expressed in CHO cells (CRE-luciferase reporter). It counts as cell-based. The conditions noted are these: CHO cells stably transfected with human FSH receptor and CRE/luciferase reporter, 4 hours incubation, pEC50 is -log EC50; for EC50: read-out: hFSHRago (CHO luc) pEC50 (converted). The source says: The term EC50 means the concentration of the test compound that elicits half-maximal (50%) stimulation compared to the compound's maximally attainable effect. pEC50 is the negative log of EC50. The values can be determined e.g. in a cell line transfected with a FSH receptor gene and cotransfected with a cAMP responsive element/promoter directing the expression of a reporter gene. For the determination a software program such as MathIQ (version 2.0, ID Business Solutions Limited) can be used.
Agonistic activity of the compounds at the human FSH receptor was determined in Chinese Hamster Ovary (CHO) cells stably transfected with the human FSH receptor and cotransfected with a cAMP responsive element (CRE)/promotor directing the expression of a firefly luciferase reporter gene. Binding of the compounds to the Gs protein-coupled FSH receptor will result in an increase of cAMP, which in turn will induce an increased transactivation of the luciferase reporter. Cells (7,500 cells/well of a 384 well plate) were incubated in Dulbecco' minimal essential F12 modified medium (Invitrogen), supplemented with 1 μg/ml bovine insulin, 5 μg/ml human apo-transferrin, 80 U/ml penicillin G and 80 μg/ml streptomycin with the test compounds (concentration between 0.0316 nM and 10.0 μM) in duplicate in a humidified atmosphere (95%) at 5-7% CO2 and 37° C. The final concentration of DMSO was 1%. After 4 hours of incubation, plates were allowed to adjust to room temperature for 1 hour. Then, Luclite (PerkinElmer) solution was added to the wells and cells were allowed to lyse for at least 1 hour at room temperature. Subsequently, luciferase activity was measured in a luminescence counter. The signal is expressed as counts per second (cps). The EC50 (concentration of the test compound that elicits half-maximal (50%) luciferase stimulation compared to the compound's maximally attainable effect) and efficacy values (maximal effect of the test compound as percentage of the maximal effect of recombinant human FSH) of the compounds were determined using the software program MathIQ (version 2.0, ID Business Solutions Limited). pEC50 data (pEC50 is −log EC50) are indicated at the synthesis examples.

SMILES strings stand for the structures.

Consider `COc1cc2c(cc1-c1cccnc1)-c1c(-c3cncs3)c3c(n1CC2)C(=O)N(C(C)(C)C)CCCC3` [Compound 11j, 9-tert-butyl-3-methoxy-2-pyridin-3-yl-14-(1,3-thiazol-5-yl)-5,6,10,11,12,13-hexahydroazocino[4′,3′:4,5]pyrrolo[2,1-a]isoquinolin-8(9H)-one], for which the “hFSHRago (CHO luc) pEC50” value is listed as 8.51.
In the case of `COc1cc2c(cc1-c1cccc(F)n1)-c1c(-c3cncs3)c3c(n1CC2)C(=O)N(C(C)(C)C)CCOC3` [Compound 11k, 9-tert-butyl-2-(6-fluoropyridin-2-yl)-3-methoxy-14-(1,3-thiazol-5-yl)-5,6,10,11-tetrahydro-9H-[1,4]oxazocino[7′,6′:4,5]pyrrolo[2,1-a]isoquinolin-8(13H)-one], the EC50 is 13.8 nM.
The same measure, in the same setting: the same measure for `COc1cc2c(cc1-c1cncs1)-c1c(-c3cncs3)c3c(n1CC2)C(=O)N(C(C)(C)C)CCOC3` [Compound 11l, 9-tert-butyl-3-methoxy-2,14-di-1,3-thiazol-5-yl-5,6,10,11-tetrahydro-9H-[1,4]oxazocino[7′,6′:4,5]pyrrolo[2,1-a]isoquinolin-8(13H)-one]: 12.6 nM.
Still for that read-out and setting: in the case of `COc1cc2c(cc1-c1cccnc1)-c1c(-c3cccs3)c3c(n1CC2)C(=O)N(C)C(C)(C)CC3` [Compound 12l, 9-methyl-2-pyidin3-yl-3-methoxy-10,10-dimethyl-13-(2-thienyl)-5,6,9,10,11,12-hexahydro-8H-azepino[4′,3′:4,5]pyrrolo[2,1-a]isoquinolin-8-one] it was 12 nM.
`COc1cc2c(cc1-c1cccnc1)-c1c(Br)c3c(n1CC2)C(=O)N(C(C)(C)C)CCC3` [Compound 13d, 9-tert-butyl-2-pyridin-3-yl-13-bromo-3-methoxy-5,6,9,10,11,12-hexahydro-8H-azepino[4′,3′:4,5]pyrrolo[2,1-a]isoquinolin-8-one]: the EC50 is 380 nM.
Same read-out and setting: in the case of `COc1cc2c(cc1-c1cccnc1)-c1c(-c3cccnc3)c3c(n1CC2)C(=O)N(C(C)(C)C)CCC3` [Compound 13e, 9-tert-butyl-2,13-di-(pyridin3-yl)-3-methoxy-5,6,9,10,11,12-hexahydro-8H-azepino[4′,3′:4,5]pyrrolo[2,1-a]isoquinolin-8-one] it was 42.7 nM; in that of `COc1cc2c(cc1-c1cccnc1)-c1c(-c3ncco3)c3c(n1CC2)C(=O)N(C(C)(C)C)CCC3` [Compound 13f], 15.8 nM.
On the same count and under the same terms, in the case of `COc1cc2c(cc1OC(C)C)-c1c(-c3cccs3)c3c(n1CC2)C(=O)N(C(C)C)CCNC3` [Compound 14e, 9-isopropyl-3-methoxy-2-isopropoxy-14-(2-thienyl)-5,6,10,11,12,13-hexahydro[1,4]diazocino[6′,7′:4,5]pyrrolo[2,1-a]isoquinolin-8(9H)-one] it was 93.3 nM; in that of `COc1cc2c(cc1OC(C)C)-c1c(-c3cccs3)c3c(n1CC2)C(=O)N(C(C)C)CCN(C(C)=O)C3` [Compound 14f, 12-acetyl-9-isopropyl-3-methoxy-2-isopropoxy-14-(2-thienyl)-5,6,10,11,12,13-hexahydro[1,4]diazocino[6′,7′:4,5]pyrrolo[2,1-a]isoquinolin-8(9H)-one], 35.5 nM.
`CCC(=O)N1CCN(C(C)C)C(=O)c2c(c(-c3cccs3)c3n2CCc2cc(OC)c(OC(C)C)cc2-3)C1` [Compound 14g, 12-propanoyl-9-isopropyl-3-methoxy-2-isopropoxy-14-(2-thienyl)-5,6,10,11,12,13-hexahydro[1,4]diazocino[6′,7′:4,5]pyrrolo[2,1-a]isoquinolin-8(9H)-one]: the EC50 was 219 nM.
For `COc1cc2c(cc1OC(C)C)-c1c(-c3cccs3)c3c(n1CC2)C(=O)N(C(C)(C)C)C3` [Compound 15f, 9-tert-butyl-2-isopropoxy-3-methoxy-11-(2-thienyl)-5,6,9,10-tetrahydro-8H-pyrrolo[3′,4′:4,5]pyrrolo[2,1-a]isoquinolin-8-one], the EC50 is 617 nM.
Turning to `COc1cc2c(cc1-c1cccnc1)-c1c(-c3cncs3)c3c(n1CC2)C(=O)N(C(C)(C)C)CCCCC3` [Compound 16n, 2-pyridin-3-yl-9-tert-butyl-3-methoxy-15-(1,3-thiazol-5-yl)-5,6,9,10,11,12,13,14-octahydro-8H-azonino[4′,3′:4,5]pyrrolo[2,1-a]isoquinolin-8-one], the EC50 was 16.2 nM.
`COc1cc2c(cc1-c1cccnc1)-c1c(-c3cscn3)c3c(n1CC2)C(=O)N(C(C)(C)C)CCCCC3` [Compound 16t, 2-pyridin-3-yl-9-tert-butyl-3-methoxy-15-(1,3-thiazol-4-yl)-5,6,9,10,11,12,13,14-octahydro-8H-azonino[4′,3′:4,5]pyrrolo[2,1-a]isoquinolin-8-one]: the EC50 is 29.5 nM.
Regarding `COc1cc2c(cc1Br)-c1c(-c3cncs3)c3c(n1CC2)C(=O)N(C(C)(C)C)CCCC3` [Compound 17i, 9-tert-butyl-3-methoxy-2-bromo-14-(1,3-thiazol-5-yl)-5,6,10,11,12,13-hexahydroazocino[4′,3′:4,5]pyrrolo[2,1-a]isoquinolin-8(9H)-one], the EC50 is 4.68 nM.
Still for that read-out and setting: in the case of `COc1cc2c(cc1-c1ncco1)-c1c(-c3cncs3)c3c(n1CC2)C(=O)N(C(C)(C)C)CCCC3` [Compound 17j, 9-tert-butyl-3-methoxy-2-(1,3-oxazol-2-yl)-14-(1,3-thiazol-5-yl)-5,6,10,11,12,13-hexahydroazocino[4′,3′:4,5]pyrrolo[2,1-a]isoquinolin-8(9H)-one] it was 0.977 nM.
The same measure, in the same setting: in the case of `COc1cc2c(cc1-c1cccnc1)-c1c(-c3cncs3)c3c(n1CC2)C(=O)N(C(C)(C)C)CCCC3` [Compound 17k, 9-tert-butyl-3-methoxy-2-pyridin-3-yl-14-(1,3-thiazol-5-yl)-5,6,10,11,12,13-hexahydroazocino[4′,3′:4,5]pyrrolo[2,1-a]isoquinolin-8(9H)-one] it was 0.355 nM; in that of `COc1cc2c(cc1OC(C)C)-c1c(Br)c3c(n1CC2)C(=O)N(C(C)(C)C)CCOC3` [Compound 18d, 9-tert-butyl-3-methoxy-2-isopropoxy-14-bromo-5,6,10,11-tetrahydro-9H-[1,4]oxazocino[7′,6′:4,5]pyrrolo[2,1-a]isoquinolin-8(13H)-one], 126 nM.
On the same count and under the same terms, in the case of `COc1cc2c(cc1OC(C)C)-c1c(-c3cccnc3)c3c(n1CC2)C(=O)N(C(C)(C)C)CCOC3` [Compound 18e, 9-tert-butyl-3-methoxy-2-isopropoxy-14-pyridin-3-yl-5,6,10,11-tetrahydro-9H-[1,4]oxazocino[7′,6′:4,5]pyrrolo[2,1-a]isoquinolin-8(13H)-one] it was 63.1 nM; in that of `COc1cc2c(cc1OC(C)C)-c1c(-c3ccncc3)c3c(n1CC2)C(=O)N(C(C)(C)C)CCOC3` [Compound 18f, 9-tert-butyl-3-methoxy-2-isopropoxy-14-pyridin-4-yl-5,6,10,11-tetrahydro-9H-[1,4]oxazocino[7′,6′:4,5]pyrrolo[2,1-a]isoquinolin-8(13H)-one], 47.9 nM.
As to `COc1cc2c(cc1OC(C)C)-c1c(-c3ccc(F)cc3)c3c(n1CC2)C(=O)N(C(C)(C)C)CCOC3` [Compound 18g], the EC50 was 20 nM.
Same read-out and setting: the same measure for `COc1cc2c(cc1-c1cccnc1)-c1c(Cl)c3c(n1CC2)C(=O)N(C(C)(C)C)CCCC3` [Compound 19f, 9-tert-butyl-3-methoxy-2-pyridin-3-yl-14-chloro-5,6,10,11,12,13-hexahydroazocino[4′,3′:4,5]pyrrolo[2,1-a]isoquinolin-8(9H)-one]: 12.3 nM; for `COc1cc2c(cc1N)-c1c(-c3cccs3)c3c(n1CC2)C(=O)N(C(C)(C)C)CCCC3` [Compound 20b, 9-tert-butyl-14-(thien-2-yl)-2-amino-3-methoxy-5,6,10,11,12,13-hexahydroazocino[4′,3′:4,5]pyrrolo[2,1-a]isoquinolin-8(9H)-one]: 39.8 nM.
